Measurements reported in patent publication US10703764B2, “Benzopiperazine compositions as BET bromodomain inhibitors” (FORMA Therapeutics, Inc., priority 2013, dated 2020).

Experiments:
BRD4 BD2 = biological target: T1, BRD4 BD2 (Homo sapiens, UniProt O60885); experiment: AlphaScreen binding assay, BRD4 Bromodomain 2
T1 construct: made in house
Procedure, shortened: (§1)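 Compound dilution series were mixed with His-tagged BRD4 bromodomain and biotinylated tetra-acetylated H4 (1-21) peptide at pH 7.3 (BD1 and peptide at 50 nM, BD2 and peptide at 100 nM). Donor and acceptor beads were then added, and plates were equilibrated at least 1 h before reading. IC50 values were fitted with a four-parameter logistic model.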

MV4-11 cells = experiment: Oncology cell growth assay (3-day proliferation, CellTiter-Glo); assay type: cell-based; conditions: Homo sapiens, MV4-11, 72 h, AML cell line MV4-11, 72 hours, compounds grouped by IC50 range, read-out: MV4-11 IC50 (inhibition of proliferation, gIC50)
Procedure, shortened: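 Compounds were serially diluted 3-fold in DMSO, giving final well concentrations from 10 down to 0.0045 μM. MV4-11 cells were then seeded at 3000 cells/well in RPMI 1640 with 10% FBS and incubated 72 hours. CellTiter-Glo signal was measured and gIC50 obtained by four-parameter logistic regression.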

BRD4 BD1 = biological target: T2, BRD4 BD1 (Homo sapiens, UniProt O60885); experiment: AlphaScreen binding assay, BRD4 Bromodomain 1
T2 construct: made in house
Procedure, shortened: as §1

Structure (SMILES)	IC50 (BRD4 BD2) [nM]	IC50 (MV4-11 cells) [nM]	IC50 (BRD4 BD1) [nM]
CC(C)OC(=O)N1C[C@H](C)N(C(=O)C2CC2)c2ccc(-c3ccc(C(=O)N4CCNCC4)cc3)cc21 [Example I-558]	50 to 500	100 to 500	100 to 1000
COC(=O)N1c2ccc(-c3ccc(C(=O)N(C)CC(=O)N(C)C)cc3)cc2N(C(=O)OC(C)C)C[C@@H]1C [Example I-561]	50 to 500	100 to 500	< 100
CNC(=O)CN(C)C(=O)c1ccc(-c2ccc3c(c2)N(C(=O)OC(C)C)C[C@H](C)N3C(=O)C2CC2)cc1 [Example I-562]	50 to 500	100 to 500	100 to 1000
CNC(=O)CN(C)C(=O)c1ccc(-c2ccc3c(c2)N(C(=O)OC(C)C)C[C@H](C)N3C(=O)OC)cc1 [Example I-563]	50 to 500	100 to 500	100 to 1000
CC(C)OC(=O)N1C[C@H](C)N(C(=O)C2CC2)c2ccc(-c3ccc(C(=O)N4CC[C@@H](N(C)C)C4)cc3)cc21 [Example I-564]	50 to 500	100 to 500	100 to 1000
CC(C)OC(=O)N1C[C@H](C)N(C(=O)C2CC2)c2ccc(-c3ccc(C(=O)N4CC[C@H](N(C)C)C4)cc3)cc21 [Example I-566]	50 to 500	100 to 500	100 to 1000
CC(=O)N[C@@H]1CCN(C(=O)c2ccc(-c3ccc4c(c3)N(C(=O)OC(C)C)C[C@H](C)N4C(=O)C3CC3)cc2)C1 [Example I-568]	50 to 500	100 to 500	100 to 1000
COC(=O)N1c2ccc(-c3ccc(C(=O)N4CC[C@@H](NC(C)=O)C4)cc3)cc2N(C(=O)OC(C)C)C[C@@H]1C [Example I-569]	50 to 500	100 to 500	100 to 1000
CC(=O)N[C@H]1CCN(C(=O)c2ccc(-c3ccc4c(c3)N(C(=O)OC(C)C)C[C@H](C)N4C(=O)C3CC3)cc2)C1 [Example I-570]	50 to 500	100 to 500	100 to 1000
CC(C)OC(=O)N1C[C@H](C)N(C(=O)C2CC2)c2ccc(-c3ccc(C(=O)N4CCN(S(C)(=O)=O)CC4)cc3)cc21 [Example I-572]	> 500	100 to 500	100 to 1000
COC(=O)N1c2ccc(-c3ccc(C(=O)N4CCN(S(C)(=O)=O)CC4)cc3)cc2N(C(=O)OC(C)C)C[C@@H]1C [Example I-573]	50 to 500	100 to 500	100 to 1000
CC(C)OC(=O)N1C[C@H](C)N(C(=O)C2CC2)c2ccc(-c3ccc(C(=O)N4CC[C@H](O)C4)cc3)cc21 [Example I-574]	50 to 500	> 500	100 to 1000
CC(C)OC(=O)N1C[C@H](C)N(C(=O)C2CC2)c2ccc(-c3ccc(C(=O)N4CC[C@@H](O)C4)cc3)cc21 [Example I-576]	50 to 500	100 to 500	100 to 1000
CC(=O)N1c2ccc(-c3ccc(C(=O)NCc4ncco4)cc3)cc2N(C(=O)OC(C)C)C[C@@H]1C [Example I-584]	50 to 500	100 to 500	100 to 1000
CC(=O)N1c2ccc(-c3ccc(C(=O)N4CC[C@H](N)C4)cc3)cc2N(C(=O)OC(C)C)C[C@@H]1C [Example I-586]	50 to 500	100 to 500	100 to 1000
CC(=O)N1c2ccc(-c3ccc(C(=O)N4CCC[C@@H](N)C4)cc3)cc2N(C(=O)OC(C)C)C[C@@H]1C [Example I-589]	50 to 500	100 to 500	100 to 1000
CC(=O)N1c2ccc(-c3ccc(C(=O)N4CCC(N)CC4)cc3)cc2N(C(=O)OC(C)C)C[C@@H]1C [Example I-590]	50 to 500	100 to 500	100 to 1000
CC(=O)N1c2ccc(-c3ccc(C(=O)N4CCCC[C@@H]4CN)cc3)cc2N(C(=O)OC(C)C)C[C@@H]1C [Example I-591]	50 to 500	100 to 500	100 to 1000
CC(=O)N1c2ccc(-c3ccc(C(=O)N4CCC[C@@H]4CN)cc3)cc2N(C(=O)OC(C)C)C[C@@H]1C [Example I-592]	50 to 500	100 to 500	100 to 1000
CC(=O)N1c2ccc(-c3ccc(C(=O)N4C[C@@H]5C[C@H]4CN5)cc3)cc2N(C(=O)OC(C)C)C[C@@H]1C [Example I-593]	50 to 500	100 to 500	100 to 1000
CC(=O)N1c2ccc(-c3ccc(C(=O)N[C@H]4C[C@H]5CC[C@@H](C4)N5)cc3)cc2N(C(=O)OC(C)C)C[C@@H]1C [Example I-594]	50 to 500	100 to 500	100 to 1000
CC(=O)N1c2ccc(-c3cnn(CC4CCS(=O)(=O)CC4)c3)cc2N(C(=O)OC(C)C)C[C@@H]1C [Example I-595]	50 to 500	100 to 500	100 to 1000
CC(=O)N1c2ccc(-c3cnn(CC(=O)N(C)C4CC4)c3)cc2N(C(=O)OC(C)C)C[C@@H]1C [Example I-596]	< 50	100 to 500	100 to 1000
CC(=O)N1c2ccc(-c3cnn(CCN4CCCS4(=O)=O)c3)cc2N(C(=O)OC(C)C)C[C@@H]1C [Example I-597]	50 to 500	100 to 500	100 to 1000

Further lines, results first:

IC50 (BRD4 BD2) [nM]	IC50 (MV4-11 cells) [nM]	IC50 (BRD4 BD1) [nM]	Structure (SMILES)
50 to 500	100 to 500	100 to 1000	COC(=O)N1c2ccc(-c3ccc(C(=O)N4CCNCC4)cc3)cc2N(C(=O)OC(C)C)C[C@@H]1C [Example I-559]
50 to 500	100 to 500	100 to 1000	COC(=O)N1c2ccc(-c3ccc(C(=O)N4CC[C@@H](N(C)C)C4)cc3)cc2N(C(=O)OC(C)C)C[C@@H]1C [Example I-565]
50 to 500	100 to 500	100 to 1000	COC(=O)N1c2ccc(-c3ccc(C(=O)N4CC[C@H](N(C)C)C4)cc3)cc2N(C(=O)OC(C)C)C[C@@H]1C [Example I-567]
50 to 500	100 to 500	100 to 1000	COC(=O)N1c2ccc(-c3ccc(C(=O)N4CC[C@H](NC(C)=O)C4)cc3)cc2N(C(=O)OC(C)C)C[C@@H]1C [Example I-571]
50 to 500	100 to 500	100 to 1000	COC(=O)N1c2ccc(-c3ccc(C(=O)N4CC[C@H](O)C4)cc3)cc2N(C(=O)OC(C)C)C[C@@H]1C [Example I-575]
50 to 500	> 500	100 to 1000	COC(=O)N1c2ccc(-c3ccc(C(=O)N4CC[C@@H](O)C4)cc3)cc2N(C(=O)OC(C)C)C[C@@H]1C [Example I-577]
50 to 500	100 to 500	100 to 1000	CC(C)OC(=O)N1C[C@H](C)N(C(=O)C2CC2)c2ccc(-c3ccc(C(=O)N4CC(O)C4)cc3)cc21 [Example I-578]
50 to 500	100 to 500	100 to 1000	COC(=O)N1c2ccc(-c3ccc(C(=O)N4CC(O)C4)cc3)cc2N(C(=O)OC(C)C)C[C@@H]1C [Example I-579]
50 to 500	100 to 500	100 to 1000	CC(=O)N1c2ccc(-c3ccc(C(=O)N4CC[C@H](O)C4)cc3)cc2N(C(=O)OC(C)C)C[C@@H]1C [Example I-580]
50 to 500	100 to 500	100 to 1000	CC(=O)N1c2ccc(-c3ccc(C(=O)N4CC[C@@H](O)C4)cc3)cc2N(C(=O)OC(C)C)C[C@@H]1C [Example I-581]
50 to 500	100 to 500	100 to 1000	CC(=O)N1c2ccc(-c3ccc(C(=O)N4CC(O)C4)cc3)cc2N(C(=O)OC(C)C)C[C@@H]1C [Example I-582]
